Patent US6313153A, “Compositions and methods for treating nephritis and inhibiting TGF -β related conditions using pyridylacrylamide derivatives” (Tsumura & Co., priority 1997, dated 2001)

Assays:
anti-GBM nephritic mice = test: anti-GBM nephritic mice: proteinuria, serum cholesterol, blood urea nitrogen and serum creatinine; type: in vivo, BALB/c mice; conditions: for Total Evaluation: 3 × (number of + in proteinuria) + (number of + in serum parameter); for Proteinuria 5th day: 5th day from intravenous injection of anti-GBM serum; for Proteinuria 5th day / Proteinuria 10th day / Serum Parameter BUN (blood urea nitrogen) / Serum Parameter S-Ch (serum cholesterol) / Serum Parameter S-Cr (serum creatinine): oral; for Proteinuria 10th day: 10th day from intravenous injection of anti-GBM serum; for Serum Parameter BUN (blood urea nitrogen) / Serum Parameter S-Ch (serum cholesterol) / Serum Parameter S-Cr (serum creatinine): 11th day;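 on Proteinuria 10th day: minus not effective plus trend double p<0.05 triple p<0.01 quadruple p<0.001 improvement vs control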;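 on Proteinuria 5th day: minus not effective plus trend double p<0.05 triple p<0.01 quadruple p<0.001 improvement vs control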;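 on Serum Parameter BUN (blood urea nitrogen): minus not effective plus trend double p<0.05 triple p<0.01 quadruple p<0.001 improvement vs control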;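 on Serum Parameter S-Ch (serum cholesterol): minus not effective plus trend double p<0.05 triple p<0.01 quadruple p<0.001 improvement vs control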
Method: BALB/c mice (5 weeks old, purchased from Nippon Charles Liver) were quarantined and adapted for about 1 week before subjecting to experiments. These mice were divided into several groups for the experiments so that average body weights and standard deviations were almost identical in all groups. Mouse anti-GBM (glomerular basement membrane) nephritis was caused by immunizing the mice with rabbit γ-globulin (1 mg) with Freund's complete adjuvant and intravenously injecting rabbit anti-mouse GBM serum on the fifth day from the immunization. Each compound tested was forcedly orally administered via an oral sonde almost simultaneously with the intravenous injection of the anti-GBM serum. On the 5th and 10th days from the intravenous injection, urine was taken by a plastic metabolic cage and proteinuria was measured (Ohtsuka Tonein TP2). On the 11th day, blood was taken by cutting the carotid and serum cholesterol (S--Ch), blood urea nitrogen (BUN) and serum creatinine (S--Cr) were measured by Toshiba TBA-380 autoanalyzer.

total TGF-β1 = test: production of total TGF-β1 in glomeruli isolated from nephritic mice (ELISA); type: cell-based, BALB/c male mice; conditions: Mus musculus, 10^-6 M, 48 hours, supernatant acid treated, read-out: Inhibition rate (%) of production of total TGF-β1
Method: (§1) BALB/c male mice were adapted in a feeding chamber for 1 week before subjecting to experiments. Nephritis was induced by subcutaneously injecting an emulsion of rabbit γ-globulin and Freund's complete adjuvant on the back in a dose amount of 1.0 mg per mouse and, after 5 days (on the zeroth day), intravenously injecting rabbit anti-mouse GBM serum in a dose amount of 0.1 ml per mouse. After 1 day from the injection of anti-serum, the glomeruli were isolated through sieves with different sizes and washed twice. Each compound to be tested (10^-6 M) was added while the solvent was added to the control groups. The glomeruli were incubated in RPMI-1640 serum-free medium for 48 hours. The amount of production of active TGF-β1 was determined by measuring the supernatant itself after the incubation for 48 hours in ELSA method. Further, the supernatant was treated with hydrochloric acid and the pH was returned with sodium hydroxide. The total amount of TGF-β1 produced in the supernatant was measured in ELISA method. The protein concentration in the medium was also measured as glomeruli protein concentration. The inhibition rate was calculated by the following equation.
(§2) Inhibition rate (%)=100×(value of control group-value of sample)/(value of control group)

active TGF-β1 = test: production of active TGF-β1 in glomeruli isolated from nephritic mice (ELISA); type: cell-based, BALB/c male mice; conditions: Mus musculus, 10^-6 M, 48 hours, read-out: Inhibition rate (%) of production of active TGF-β1
Method: as §1, §2

TGF-β1 = test: Glomerular TGF-β1 Expression in IgA Nephropathy in Mice (immunohistochemical staining score); type: in vivo, Male ddY mice; conditions: for staining score (Index), glomerular TGF-β1: 5 weeks, Mean ± S.E.
Description: Effects of the compounds of the present Invention on the Glomerular TGF-β1 Expression in IgA Nephropahty in Mice
Male ddY mice of 9 weeks old were used, each group consisting of 5 mice. One kidney was nephrectomized from the mice on the zero week, and carbon was intravenously injected from 1 week after the nephrectomy (once per week, total three times). In Experiment 1, administration was commenced on the final day of the intravenous injection of carbon. In Experiment 2, administration was commenced after the mice were allowed to stand for 10 weeks from the intravenous injection of carbon. In both Experiments, the administration was continued for 5 weeks and then the kidney was taken, fixed with […] and embedded in paraffin. Sliced specimens were stained as TGF-β1 positive area by the immunohistochemical analysis method using TGF-β1 antibody.
Staining was evaluated according to the Kagami et al. method (Kagami S., Border WA., Ruslahti E., Noble B.: Coordinated expression of β integrins and transforming growth factor-β induced matrix proteins in glomerulonephritis. Lab Invest 1993, 69, 68-76) and is shown as staining score (Index).

[1] = Experiment 2, 2.0 mg/kg, p < 0.05 vs control

Compound	Total Evaluation (anti-GBM nephritic mice)	Proteinuria 5th day (anti-GBM nephritic mice)	Proteinuria 10th day (anti-GBM nephritic mice)	Serum Parameter BUN (blood urea nitrogen) (anti-GBM nephritic mice)	Serum Parameter S-Ch (serum cholesterol) (anti-GBM nephritic mice)	Serum Parameter S-Cr (serum creatinine) (anti-GBM nephritic mice)	inhibition at 1 µM (total TGF-β1)	inhibition at 1 µM (active TGF-β1)	also measured
COc1cc(CCN(C)C(=O)/C=C/c2cccnc2)ccc1O [Compound 73]	22	+++	+++	+	+++	-	84%	78%	
O=C(/C=C/c1cccnc1)NCCc1cccc(O)c1 [Compound 81, (E)-N-(3-hydroxyphenethyl)-3-(3-pyridyl)-2-propenoic acid amide]	26	+++	+++	+++	+++	++		58%	
COc1ccc(CCN(C)C(=O)/C=C/c2cccnc2)cc1OC [Compound 84, (E)-N-(3,4-dimethoxyphenethyl)-N-methyl-3-(3-pyridyl)-2-propenoic acid amide]	23	+++	+++	+++	++	-	85%	40%	
CCOC(=O)COc1cccc(CCNC(=O)/C=C/c2cccnc2)c1 [Compound 99]	21	+++	+++	+	-	++			glomerular TGF-β1 expression (TGF-β1; Experiment 1): tendency of inhibiting glomerular TGF-β1 expression; % inhibition of Index (TGF-β1; Experiment 1, 0.1 mg/kg): 15%; staining score (Index), glomerular TGF-β1 (TGF-β1; Experiment 1, 0.1 mg/kg): 0.17 ± 0.04; % inhibition of Index (TGF-β1; Experiment 1, 0.5 mg/kg): 35%; staining score (Index), glomerular TGF-β1 (TGF-β1; Experiment 1, 0.5 mg/kg): 0.13 ± 0.03; % inhibition of Index (TGF-β1; Experiment 1, 2.0 mg/kg): 45%; staining score (Index), glomerular TGF-β1 (TGF-β1; Experiment 1, 2.0 mg/kg): 0.11 ± 0.03; increase of Index (TGF-β1; Experiment 2): significantly inhibited the increase of Index; % inhibition of Index (TGF-β1; Experiment 2, 0.1 mg/kg): 29%; staining score (Index), glomerular TGF-β1 (TGF-β1; Experiment 2, 0.1 mg/kg): 0.29 ± 0.04; staining score (Index), glomerular TGF-β1 (TGF-β1; [1]): 0.18 ± 0.05; % inhibition of Index (TGF-β1; [1]): 56%; production of TGF-β1 in vivo (TGF-β1; Experiments 1 and 2, conclusion): inhibiting action on the production of TGF-β1 in vivo
O=C(O)COc1cccc(CCNC(=O)/C=C/c2cccnc2)c1 [Compound 148]							78.3%	45%	
